Measured values: patent US10766869B2, “Triazoles for the treatment of demyelinating dieases” (Vertex Pharmaceuticals Incorporated, priority 2015, dated 2020)
Like-named read-outs stand apart in the source and are kept apart here.

System: primary rat mixed cortical cells
Assay: In vitro myelination assay (MBP positive myelin strands, fold myelin pixels above background)
Assay type: cell-based
Conditions: Rattus norvegicus; for fold induction at 1 µM: 1.0 μM compound; for fold induction at 10 µM: 10.0 μM compound
Summary of the method: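 Myelination read as total MBP-immunopositive strand pixels per well, imaged at 10× after fixation on day 14 and expressed relative to untreated wells, at 1.0 and 10.0 μM. Cells: dissociated postnatal day 1 rat cortex, cultured two weeks with compound, re-dosed at days 6 and 10.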

[1] = read-out: Fold myelin pixels above background relative to baseline of no added compound
[2] = relative to baseline of no added compound, read-out: Fold myelin pixels above background
[3] = relative to baseline of no added compound, read-out: Fold myelin pixels above background, 1.0 μM
[4] = relative to baseline of no added compound, read-out: Fold myelin pixels above background, 10.0 μM

SMILES	fold induction at 1 µM [1]	fold induction at 10 µM [1]	fold induction at 1 µM [2]	fold induction at 10 µM [2]	further results
[2H]C1([2H])N(C(=O)C2CC2)C([2H])([2H])C([2H])([2H])N(c2cc(Nc3ncn(-c4cc(F)cc(F)c4)n3)cc(C(F)(F)F)c2)C1([2H])[2H] [Compound 883, cyclopropyl-[2,2,3,3,5,5,6,6-octadeuterio-4-[3-[[1-(3,5-difluorophenyl)-1,2,4-triazol-3-yl]amino]-5-(trifluoromethyl)phenyl]piperazin-1-yl]methanone]	10 to 100	1 to 10			
Cc1cc(Nc2ncn(-c3cccc(C(F)F)c3)n2)nc(N2CC(N3CCOCC3)C2)c1 [Compound 768, N-[1-[3-(difluoromethyl)phenyl]-1,2,4-triazol-3-yl]-4-methyl-6-(3-morpholinoazetidin-1-yl)pyridin-2-amine]			≤ 1	1 to 10	
COCCC1CN(c2cc(C)cc(Nc3ncn(-c4cc(F)cc(F)c4)n3)c2)CCO1 (centres unmarked) [Compound 1030, 1-(3,5-difluorophenyl)-N-[3-[2-(2-methoxyethyl)morpholin-4-yl]-5-methyl-phenyl]-1,2,4-triazol-3-amine]	10 to 100	1 to 10			
Cc1cc(Nc2ncn(-c3cnccn3)n2)cc(N2CCN(C3CC3)CC2)c1 [Compound 20, N-[3-(4-cyclopropylpiperazin-1-yl)-5-methyl-phenyl]-1-pyrazin-2-yl-1,2,4-triazol-3-amine]					fold induction at 1 µM [3]: 10 to 100; fold induction at 10 µM [4]: 100 to 1000
Cc1cc(Nc2ncn(-c3ccccn3)n2)c(F)c(N2CCN(C3COC3)CC2)c1 [Compound 908, N-[2-fluoro-5-methyl-3-[4-(oxetan-3-yl)piperazin-1-yl]phenyl]-1-(2-pyridyl)-1,2,4-triazol-3-amine]	1 to 10	10 to 100			
[2H]C1(N2CCN(c3cc(C)cc(Nc4ncn(-c5cc(F)cc(F)c5)n4)c3)CC2)COC1 [Compound 1110, N-[3-[4-(3-deuteriooxetan-3-yl)piperazin-1-yl]-5-methyl-phenyl]-1-(3,5-difluorophenyl)-1,2,4-triazol-3-amine]	1000 to 10000	1 to 10			
Cc1cc(CN2CCN(C3COC3)CC2)cc(Nc2ncn(-c3cc(F)cc(F)c3)n2)c1 [Compound 596, 1-(3,5-difluorophenyl)-N-[3-methyl-5-[[4-(oxetan-3-yl)piperazin-1-yl]methyl]phenyl]-1,2,4-triazol-3-amine]			10 to 100	10 to 100	
Cc1cc(Nc2ncn(-c3cc(F)cc(F)c3)n2)cc(N2CC(N3C4CCC3COC4)C2)c1 [Compound 746, 1-(3,5-difluorophenyl)-N-[3-methyl-5-[3-(3-oxa-8-azabicyclo[3.2.1]octan-8-yl)azetidin-1-yl]phenyl]-1,2,4-triazol-3-amine]			10 to 100	10 to 100	
Cc1cc(N2CCN(C3COC3)CC2)cc(Nc2ncn(-c3cc(F)cc(F)c3)n2)c1C [Compound 425, 1-(3,5-difluorophenyl)-N-[2,3-dimethyl-5-[4-(oxetan-3-yl)piperazin-1-yl]phenyl]-1,2,4-triazol-3-amine]			1 to 10	100 to 1000	
Cc1cc(Nc2ncn(-c3ccc(F)c(F)c3)n2)cc(OC2CCOC2)c1 (centres unmarked) [Compound 778, 1-(3,4-difluorophenyl)-N-(3-methyl-5-tetrahydrofuran-3-yloxy-phenyl)-1,2,4-triazol-3-amine]			10 to 100	1 to 10	
Cc1cc(Nc2ccn(C)n2)cc(Nc2ncn(-c3ccccc3)n2)c1 [Compound 828, 5-methyl-N3-(1-methylpyrazol-3-yl)-N1-(1-phenyl-1,2,4-triazol-3-yl)benzene-1,3-diamine]	1 to 10	≤ 1			
COc1cc(Nc2ncn(-c3ccc(Cl)c(F)c3)n2)nc(N2CCN(C3COC3)CC2)c1 [Compound 758, N-[1-(4-chloro-3-fluoro-phenyl)-1,2,4-triazol-3-yl]-4-methoxy-6-[4-(oxetan-3-yl)piperazin-1-yl]pyridin-2-amine]			10 to 100	10 to 100	
CC(=O)N1CCC(c2cc(C)cc(Nc3ncn(-c4ccccc4)n3)c2)CC1 [Compound 194, 1-[4-[3-methyl-5-[(1-phenyl-1,2,4-triazol-3-yl)amino]phenyl]-1-piperidyl]ethanone]					fold induction at 1 µM [3]: 1000 to 10000; fold induction at 10 µM [4]: ≤ 1
FC(F)c1cccc(-n2cnc(Nc3cc(C(F)F)cc(N4CCN(C5COC5)CC4)n3)n2)c1 [Compound 718, 4-(difluoromethyl)-N-[1-[3-(difluoromethyl)phenyl]-1,2,4-triazol-3-yl]-6-[4-(oxetan-3-yl)piperazin-1-yl]pyridin-2-amine]			10 to 100	100 to 1000	
Cc1cc(Nc2ncn(-c3cnccn3)n2)cc([C@@]2(C)CNC(=O)O2)c1 (single isomer, unassigned) [Compound 603]			10 to 100	10 to 100	
Cc1cc(Nc2ncn(-c3cc(F)cc(F)c3)n2)nc(OC2CCCOC2)c1 (centres unmarked) [Compound 999, N-[1-(3,5-difluorophenyl)-1,2,4-triazol-3-yl]-4-methyl-6-tetrahydropyran-3-yloxy-pyridin-2-amine]	1 to 10	≤ 1			
COc1c(F)cc(-n2cnc(Nc3cc(C)cc(N4CCN(C5COC5)CC4)c3)n2)cc1F [Compound 646, 1-(3,5-difluoro-4-methoxy-phenyl)-N-[3-methyl-5-[4-(oxetan-3-yl)piperazin-1-yl]phenyl]-1,2,4-triazol-3-amine]			10 to 100	1 to 10	
COC1(CNc2cc(C)cc(Nc3ncn(-c4cc(F)cc(F)c4)n3)c2)CCC1 [Compound 1029, N1-[1-(3,5-difluorophenyl)-1,2,4-triazol-3-yl]-N3-[(1-methoxycyclobutyl)methyl]-5-methyl-benzene-1,3-diamine]	10 to 100	10 to 100			
Cc1cc(Nc2ncn(-c3cnccn3)n2)cc(N2CCN(C3CC(F)(F)C3)CC2)c1 [Compound 75, N-[3-[4-(3,3-difluorocyclobutyl)piperazin-1-yl]-5-methyl-phenyl]-1-pyrazin-2-yl-1,2,4-triazol-3-amine]					fold induction at 1 µM [3]: ≤ 1; fold induction at 10 µM [4]: 100 to 1000
Fc1cc(F)cc(-n2cnc(Nc3cc(N4CCN(C5COC5)CC4)cc(N4CCN(C5COC5)CC4)c3)n2)c1 [Compound 574, N-[3,5-bis[4-(oxetan-3-yl)piperazin-1-yl]phenyl]-1-(3,5-difluorophenyl)-1,2,4-triazol-3-amine]			100 to 1000	10 to 100	
Fc1cc(-n2cnc(Nc3cc(C(F)F)cc(N4CCN(C5COC5)CC4)n3)n2)ccc1Cl [Compound 621, N-[1-(4-chloro-3-fluoro-phenyl)-1,2,4-triazol-3-yl]-4-(difluoromethyl)-6-[4-(oxetan-3-yl)piperazin-1-yl]pyridin-2-amine]			10 to 100	1 to 10	
Fc1cc(F)cc(-n2cnc(Nc3cc(N4CCN(C5COC5)CC4)cc(C(F)(F)F)n3)n2)c1 [Compound 567, N-[1-(3,5-difluorophenyl)-1,2,4-triazol-3-yl]-4-[4-(oxetan-3-yl)piperazin-1-yl]-6-(trifluoromethyl)pyridin-2-amine]			≤ 1	≤ 1	
